# Molecular target: human TrkA receptor (Homo sapiens (Human), UniProt P04629)
# Experiment: DiscoverX PathHunter TrkA functional assay (NGF-stimulated U2OS cells)
# Type: cell-based
# Conditions: U2OS cells expressing human TrkA-PK, Shc1-EA and p75NTR; compound 1 h, then NGF at ~80% of maximal response for 3 h; luminescence
# human TrkA receptor, sequence (P04629 33-796): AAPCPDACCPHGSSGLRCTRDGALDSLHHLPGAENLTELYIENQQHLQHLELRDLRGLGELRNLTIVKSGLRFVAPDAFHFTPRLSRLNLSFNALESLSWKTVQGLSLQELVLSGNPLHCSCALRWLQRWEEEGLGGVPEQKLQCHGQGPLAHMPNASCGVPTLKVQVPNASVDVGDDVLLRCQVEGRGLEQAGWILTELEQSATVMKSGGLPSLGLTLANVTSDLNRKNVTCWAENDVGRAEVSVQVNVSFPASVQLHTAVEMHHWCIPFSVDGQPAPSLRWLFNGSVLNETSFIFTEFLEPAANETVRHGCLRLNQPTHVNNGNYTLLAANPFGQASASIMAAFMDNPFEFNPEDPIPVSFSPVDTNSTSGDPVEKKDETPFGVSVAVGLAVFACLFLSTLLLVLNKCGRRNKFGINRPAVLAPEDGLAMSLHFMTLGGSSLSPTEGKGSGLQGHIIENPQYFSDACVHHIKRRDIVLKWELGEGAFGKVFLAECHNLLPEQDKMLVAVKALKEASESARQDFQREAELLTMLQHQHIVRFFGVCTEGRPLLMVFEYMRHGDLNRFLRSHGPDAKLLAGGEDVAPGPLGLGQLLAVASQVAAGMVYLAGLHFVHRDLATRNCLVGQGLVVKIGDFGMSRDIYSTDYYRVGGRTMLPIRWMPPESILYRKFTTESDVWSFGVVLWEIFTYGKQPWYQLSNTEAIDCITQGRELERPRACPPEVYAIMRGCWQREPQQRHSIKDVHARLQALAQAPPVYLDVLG
row,Compound,IC50 [nM]
1,"Cn1ccc(-c2cc(C(=O)Nc3cc(C(N)=O)nnc3-c3ccccc3)c(F)cc2C(F)(F)F)n1 [Example 94, 5-(2-fluoro-5-(1-methyl-1H-pyrazol-3-yl)-4-(trifluoromethyl)benzamido)-6-phenylpyridazine-3-carboxamide]",9.3
2,"CN1CC(=O)N(Cc2ncc(NC(=O)c3cc(-c4ccn(C)n4)c(C(F)(F)F)cc3F)c(-c3ccccc3)n2)C1=O [Example 95, 2-Fluoro-5-(1-methyl-1H-pyrazol-3-yl)-N-(2-((3-methyl-2,5-dioxoimidazolidin-1-yl)methyl)-4-phenylpyrimidin-5-yl)-4-(trifluoromethyl)benzamide]",0.11
3,"Cn1ccc(-c2cc(C(=O)Nc3cnc(CN4C(=O)CNC4=O)nc3-c3ccccc3)c(F)cc2C(F)(F)F)n1 [Example 96, N-(2-((2,5-dioxoimidazolidin-1-yl)methyl)-4-phenylpyrimidin-5-yl)-2-fluoro-5-(1-methyl-1H-pyrazol-3-yl)-4-(trifluoromethyl)benzamide]",0.083
4,"Cn1ccc(-c2cc(C(=O)Nc3cnc(CN4C(=O)COC4=O)nc3-c3ccccc3)c(F)cc2C(F)(F)F)n1 [Example 97, N-(2-((2,4-dioxooxazolidin-3-yl)methyl)-4-phenylpyrimidin-5-yl)-2-fluoro-5-(1-methyl-1H-pyrazol-3-yl)-4-(trifluoromethyl)benzamide]",0.25
5,"Cn1ccc(-c2cc(C(=O)Nc3ccc(CN4C(=O)CNC4=O)nc3-c3ccccc3)c(F)cc2C(F)(F)F)n1 [Example 98, N-(6-((2,5-dioxoimidazolidin-1-yl)methyl)-2-phenylpyridin-3-yl)-2-fluoro-5-(1-methyl-1H-pyrazol-3-yl)-4-(trifluoromethyl)benzamide]",0.22
6,"Cn1ccc(-c2cc(C(=O)Nc3cnc(CC(N)=O)nc3-c3ccccc3)c(F)cc2C(F)(F)F)n1 [Example 99, N-(2-(2-Amino-2-oxoethyl)-4-phenylpyrimidin-5-yl)-2-fluoro-5-(1-methyl-1H-pyrazol-3-yl)-4-(trifluoromethyl)benzamide]",0.59
7,"CN(C)C(=O)Cc1ncc(NC(=O)c2cc(-c3ccn(C)n3)c(C(F)(F)F)cc2F)c(-c2ccccc2)n1 [Example 100, N-(2-(2-(Dimethylamino)-2-oxoethyl)-4-phenylpyrimidin-5-yl)-2-fluoro-5-(1-methyl-1H-pyrazol-3-yl)-4-(trifluoromethyl)benzamide]",1.2
8,"Cn1ccc(-c2cc(C(=O)Nc3cnc(CC(N)=O)cc3-c3ccccc3)c(F)cc2C(F)(F)F)n1 [Example 101, N-(6-(2-Amino-2-oxoethyl)-4-phenylpyridin-3-yl)-2-fluoro-5-(1-methyl-1H-pyrazol-3-yl)-4-(trifluoromethyl)benzamide]",1.1
9,"Cn1ccc(-c2cc(C(=O)Nc3ccc(CC(N)=O)nc3-c3ccccc3)c(F)cc2C(F)(F)F)n1 [Example 102, N-(6-(2-Amino-2-oxoethyl)-2-phenylpyridin-3-yl)-2-fluoro-5-(1-methyl-1H-pyrazol-3-yl)-4-(trifluoromethyl)benzamide]",0.79
10,"CNC(=O)Cc1ncc(NC(=O)c2ccc(C(F)(F)F)c(-c3ccn(C)n3)c2)c(-c2ccccc2)n1 [Example 103, 3-(1-methyl-1H-pyrazol-3-yl)-N-(2-(2-(methylamino)-2-oxoethyl)-4-phenylpyrimidin-5-yl)-4-(trifluoromethyl)benzamide]",4.1
11,"CNC(=O)Cc1ncc(NC(=O)c2cc(-c3ccn(C)n3)c(C(F)(F)F)cc2F)c(-c2ccccc2)n1 [Example 104, 2-fluoro-5-(1-methyl-1H-pyrazol-3-yl)-N-(2-(2-(methylamino)-2-oxoethyl)-4-phenylpyrimidin-5-yl)-4-(trifluoromethyl)benzamide]",0.76
12,"CCNC(=O)Cc1ncc(NC(=O)c2cc(-c3ccn(C)n3)c(C(F)(F)F)cc2F)c(-c2ccccc2)n1 [Example 105, N-(2-(2-(ethylamino)-2-oxoethyl)-4-phenylpyrimidin-5-yl)-2-fluoro-5-(1-methyl-1H-pyrazol-3-yl)-4-(trifluoromethyl)benzamide]",0.53
13,"Cn1ccc(-c2cc(C(=O)Nc3cnc(CC(=O)O)nc3-c3ccccc3)c(F)cc2C(F)(F)F)n1 [Example 106, 2-(5-(2-fluoro-5-(1-methyl-1H-pyrazol-3-yl)-4-(trifluoromethyl)benzamido)-4-phenylpyrimidin-2-yl)acetic acid]",2
14,"Cn1ccc(-c2cc(C(=O)Nc3cnc(CC(=O)NC[C@@H]4CCCO4)nc3-c3ccccc3)c(F)cc2C(F)(F)F)n1 [Example 107, (S)-2-fluoro-5-(1-methyl-1H-pyrazol-3-yl)-N-(2-(2-oxo-2-(((tetrahydrofuran-2-yl)methyl)amino)ethyl)-4-phenylpyrimidin-5-yl)-4-(trifluoromethyl)benzamide]",1.2
15,"Cn1ccc(-c2cc(C(=O)Nc3cnc(CC(=O)NCCO)nc3-c3ccccc3)c(F)cc2C(F)(F)F)n1 [Example 108, 2-fluoro-N-(2-(2-((2-hydroxyethyl)amino)-2-oxoethyl)-4-phenylpyrimidin-5-yl)-5-(1-methyl-1H-pyrazol-3-yl)-4-(trifluoromethyl)benzamide]",1.5
16,"Cn1ccc(-c2cc(C(=O)Nc3cnc(CC(=O)N[C@H]4C[C@@H](O)C4)nc3-c3ccccc3)c(F)cc2C(F)(F)F)n1 [Example 109, 2-fluoro-N-(2-(2-(((1s,3s)-3-hydroxycyclobutyl)amino)-2-oxoethyl)-4-phenylpyrimidin-5-yl)-5-(1-methyl-1H-pyrazol-3-yl)-4-(trifluoromethyl)benzamide]",2.6
17,"Cn1ccc(-c2cc(C(=O)Nc3cnc(CC(=O)N[C@H]4CCOC4)nc3-c3ccccc3)c(F)cc2C(F)(F)F)n1 [Example 110, (S)-2-fluoro-5-(1-methyl-1H-pyrazol-3-yl)-N-(2-(2-oxo-2-((tetrahydrofuran-3-yl)amino)ethyl)-4-phenylpyrimidin-5-yl)-4-(trifluoromethyl)benzamide]",1.2
18,"Cn1ccc(-c2cc(C(=O)Nc3cnc(CC(=O)N4CCOCC4)nc3-c3ccccc3)c(F)cc2C(F)(F)F)n1 [Example 111, 2-fluoro-5-(1-methyl-1H-pyrazol-3-yl)-N-(2-(2-morpholino-2-oxoethyl)-4-phenylpyrimidin-5-yl)-4-(trifluoromethyl)benzamide]",9.1
19,"Cn1ccc(-c2cc(C(=O)Nc3cnc(CC(=O)NCC4CCOC4)nc3-c3ccccc3)c(F)cc2C(F)(F)F)n1 (stereo not drawn) [Example 112, 2-fluoro-5-(1-methyl-1H-pyrazol-3-yl)-N-(2-(2-oxo-2-(((tetrahydrofuran-3-yl)methyl)amino)ethyl)-4-phenylpyrimidin-5-yl)-4-(trifluoromethyl)benzamide]",6.5
20,"Cn1ccc(-c2cc(C(=O)Nc3cnc(CC(=O)NC4CCC4)nc3-c3ccccc3)c(F)cc2C(F)(F)F)n1 [Example 113, N-(2-(2-(cyclobutylamino)-2-oxoethyl)-4-phenylpyrimidin-5-yl)-2-fluoro-5-(1-methyl-1H-pyrazol-3-yl)-4-(trifluoromethyl)benzamide]",1.3

# More lines, now with the values ahead:
row,IC50 [nM],Compound
1,3,"Cn1ccc(-c2cc(C(=O)Nc3cnc(CC(=O)N4CCNCC4)nc3-c3ccccc3)c(F)cc2C(F)(F)F)n1 [Example 114, 2-fluoro-5-(1-methyl-1H-pyrazol-3-yl)-N-(2-(2-oxo-2-(piperazin-1-yl)ethyl)-4-phenylpyrimidin-5-yl)-4-(trifluoromethyl)benzamide]"
2,2.6,"CCN(C)C(=O)Cc1ncc(NC(=O)c2cc(-c3ccn(C)n3)c(C(F)(F)F)cc2F)c(-c2ccccc2)n1 [Example 115, N-(2-(2-(ethyl(methyl)amino)-2-oxoethyl)-4-phenylpyrimidin-5-yl)-2-fluoro-5-(1-methyl-1H-pyrazol-3-yl)-4-(trifluoromethyl)benzamide]"
3,9.8,"Cn1ccc(-c2cc(C(=O)Nc3cnc(CC(N)=O)nc3-c3ccccc3)ccc2C(F)(F)F)n1 [Example 116, N-(2-(2-amino-2-oxoethyl)-4-phenylpyrimidin-5-yl)-3-(1-methyl-1H-pyrazol-3-yl)-4-(trifluoromethyl)benzamide]"
4,4.9,"Cc1ccccc1-c1nc(CC(N)=O)ncc1NC(=O)c1cc(-c2ccn(C)n2)c(C(F)(F)F)cc1F [Example 117, N-(2-(2-amino-2-oxoethyl)-4-(o-tolyl)pyrimidin-5-yl)-2-fluoro-5-(1-methyl-1H-pyrazol-3-yl)-4-(trifluoromethyl)benzamide]"
5,3.8,"Cn1ccc(-c2cc(C(=O)Nc3cnc(C(O)C(N)=O)nc3-c3ccccc3)c(F)cc2C(F)(F)F)n1 (stereo not drawn) [Example 118, N-(2-(2-amino-1-hydroxy-2-oxoethyl)-4-phenylpyrimidin-5-yl)-2-fluoro-5-(1-methyl-1H-pyrazol-3-yl)-4-(trifluoromethyl)benzamide]"
6,7.9,"Cn1ccc(-c2cc(C(=O)Nc3cnc(C4(C(N)=O)CC4)nc3-c3ccccc3)c(F)cc2C(F)(F)F)n1 [Example 119, N-(2-(1-carbamoylcyclopropyl)-4-phenylpyrimidin-5-yl)-2-fluoro-5-(1-methyl-1H-pyrazol-3-yl)-4-(trifluoromethyl)benzamide]"
7,8.7,"Cn1ccc(-c2cc(C(=O)Nc3ncc(CC(N)=O)nc3-c3ccccc3)c(F)cc2C(F)(F)F)n1 [Example 120, N-(5-(2-amino-2-oxoethyl)-3-phenylpyrazin-2-yl)-2-fluoro-5-(1-methyl-1H-pyrazol-3-yl)-4-(trifluoromethyl)benzamide]"
8,8,"Cn1ccc(-c2cc(C(=O)Nc3cnc(C(C)(C)C(=O)O)nc3-c3ccccc3)c(F)cc2C(F)(F)F)n1 [Example 121, 2-(5-(2-fluoro-5-(1-methyl-1H-pyrazol-3-yl)-4-(trifluoromethyl)benzamido)-4-phenylpyrimidin-2-yl)-2-methylpropanoic acid]"
9,18,"Cn1ccc(-c2cc(C(=O)Nc3cnc(C(C)(C)C(N)=O)nc3-c3ccccc3)c(F)cc2C(F)(F)F)n1 [Example 122, N-(2-(1-amino-2-methyl-1-oxopropan-2-yl)-4-phenylpyrimidin-5-yl)-2-fluoro-5-(1-methyl-1H-pyrazol-3-yl)-4-(trifluoromethyl)benzamide]"
10,8.4,"NC(=O)Cc1ncc(NC(=O)c2cc(-c3ccccn3)c(C(F)(F)F)cc2F)c(-c2ccccc2)n1 [Example 123, N-(2-(2-amino-2-oxoethyl)-4-phenylpyrimidin-5-yl)-2-fluoro-5-(pyridin-2-yl)-4-(trifluoromethyl)benzamide]"
